Results from patent publication US8309577B2, “Quinuclidine compounds as α-7 nicotinic acetylcholine receptor ligands” (Bristol-Myers Squibb Company, priority 2008, dated 2012).

These molecules were tested against T1, α-7 nicotinic acetylcholine receptor channel expressed in HEK 293 cells (Rattus norvegicus, UniProt Q05941) (assay: Ca2+-sensitive fluorescence-based FLIPR assay, α7 nicotinic ACh receptor channel function (agonist)). Conditions: FLIPR α7 (EC50, nM), Table 1; HEK 293 cells, agonist Ca2+ flux.
T1 construct: expressed in transfected cells
T1 sequence (Q05941 23-502): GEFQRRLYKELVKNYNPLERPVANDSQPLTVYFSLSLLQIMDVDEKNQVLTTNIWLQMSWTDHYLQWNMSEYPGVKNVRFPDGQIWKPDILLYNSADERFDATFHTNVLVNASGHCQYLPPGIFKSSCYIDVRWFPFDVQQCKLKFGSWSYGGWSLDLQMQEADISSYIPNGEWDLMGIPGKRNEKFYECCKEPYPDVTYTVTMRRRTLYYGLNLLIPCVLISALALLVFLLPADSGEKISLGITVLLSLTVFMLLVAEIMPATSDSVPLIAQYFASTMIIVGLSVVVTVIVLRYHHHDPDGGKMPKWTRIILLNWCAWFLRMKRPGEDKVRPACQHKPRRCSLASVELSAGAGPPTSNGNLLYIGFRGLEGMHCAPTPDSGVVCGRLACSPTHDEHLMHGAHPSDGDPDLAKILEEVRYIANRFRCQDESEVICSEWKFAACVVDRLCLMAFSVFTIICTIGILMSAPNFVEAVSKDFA
Type: cell-based
Summary of the method: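 Potency and efficacy derived from kinetic FLIPR Ca²⁺-flux fluorescence, recorded 3 min after compound addition in Hanks buffer following a 10 s baseline.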

| Structure (SMILES) | EC50 |
| --- | --- |
| Fc1cccc2[nH]nc(NC3=NC[C@@]4(CN5CCC4CC5)O3)c12 [Example 158] | 135 nM |
| c1ccc2c(NC3=NC[C@@]4(CN5CCC4CC5)O3)n[nH]c2c1 [Example 165] | 13 nM |
| COc1ccc(-c2ccnc(NC3=NC[C@@]4(CN5CCC4CC5)O3)n2)cc1 [Example 166] | 11 nM |
| Cc1cc(Cl)cc2sc(NC3=NC[C@@]4(CN5CCC4CC5)O3)nc12 [Example 174] | 245 nM |
| COc1nc(NC2=NC[C@@]3(CN4CCC3CC4)O2)ncc1Br [Example 178] | 17 nM |
| Cc1nc(NC2=NC[C@@]3(CN4CCC3CC4)O2)sc1C [Example 187] | 424 nM |
| Brc1cnc(NC2=NC[C@@]3(CN4CCC3CC4)O2)nc1-c1ccccc1 [Example 193] | 17 nM |
| c1cncc(-c2ccnc(NC3=NC[C@@]4(CN5CCC4CC5)O3)n2)c1 [Example 194] | 18 nM |
| c1ccc2c(c1)OCc1cnc(NC3=NC[C@@]4(CN5CCC4CC5)O3)nc1-2 [Example 196] | 13 nM |
| Brc1ccc(NC2=NC[C@@]3(CN4CCC3CC4)O2)nc1 [Example 198] | 15 nM |
| c1nc(NC2=NC[C@@]3(CN4CCC3CC4)O2)nc2c1CCC2 [Example 202] | 16 nM |
| Brc1cnc(NC2=NC[C@@]3(CN4CCC3CC4)O2)nc1C1CC1 [Example 210] | 9 nM |
| Clc1cnc(NC2=NC[C@@]3(CN4CCC3CC4)O2)nc1 [Example 213] | 9 nM |
| COCc1cc(NC2=NC[C@@]3(CN4CCC3CC4)O2)ncn1 [Example 218, (R)—N-(6-(methoxymethyl)pyrimidin-4-yl)-4H-1′-azaspiro[oxazole-5,3′-bicyclo[2.2.2]octan]-2-amine] | 285 nM |

Same assay, conditions: FLIPR α7 activity rating (EC50, nM), Table 1; HEK 293 cells, agonist Ca2+ flux

| Structure (SMILES) | EC50 |
| --- | --- |
| Fc1ccc2nc(NC3=NC[C@@]4(CN5CCC4CC5)O3)ccc2c1 [Example 140] | 100 to 1000 nM |
| c1csc(-c2cc(NC3=NC[C@@]4(CN5CCC4CC5)O3)n[nH]2)c1 [Example 143] | 100 to 1000 nM |
| Cc1cc(C)c2c(NC3=NC[C@@]4(CN5CCC4CC5)O3)nsc2n1 [Example 145] | 1000 to 100000 nM |
| c1ccc2c(NC3=NC[C@@]4(CN5CCC4CC5)O3)nccc2c1 [Example 146] | 100 to 1000 nM |
| c1ccc2c(NC3=NC[C@@]4(CN5CCC4CC5)O3)ncnc2c1 [Example 147] | 100 to 1000 nM |
| N#Cc1cnc(NC2=NC[C@@]3(CN4CCC3CC4)O2)cn1 [Example 148] | 1000 to 100000 nM |
| COc1cc(NC2=NC[C@@]3(CN4CCC3CC4)O2)nc(OC)n1 [Example 150] | 100 to 1000 nM |
| COc1ccc(-c2cnc(NC3=NC[C@@]4(CN5CCC4CC5)O3)nc2)cc1 [Example 151] | 100 to 1000 nM |
| c1ccc2c(c1)CCc1cnc(NC3=NC[C@@]4(CN5CCC4CC5)O3)nc1-2 [Example 153] | 100 to 1000 nM |
| Brc1cc(NC2=NC[C@@]3(CN4CCC3CC4)O2)ccn1 [Example 154] | 1000 to 100000 nM |
| Brc1cccc(NC2=NC[C@@]3(CN4CCC3CC4)O2)n1 [Example 155] | 100 to 1000 nM |
| Cc1ccc2nc(NC3=NC[C@@]4(CN5CCC4CC5)O3)ccc2c1 [Example 157] | 100 to 1000 nM |
| Fc1cccc2[nH]nc(NC3=NC[C@@]4(CN5CCC4CC5)O3)c12 [Example 158] | 100 to 1000 nM |
| Fc1ccc2[nH]nc(NC3=NC[C@@]4(CN5CCC4CC5)O3)c2c1 [Example 159] | < 100 nM |
| c1cc(NC2=NC[C@@]3(CN4CCC3CC4)O2)cnn1 [Example 160] | 1000 to 100000 nM |
| Cc1oc2ncnc(NC3=NC[C@@]4(CN5CCC4CC5)O3)c2c1C [Example 161] | 1000 to 100000 nM |
| COc1ccc(-c2cc(NC3=NC[C@@]4(CN5CCC4CC5)O3)n[nH]2)cc1 [Example 162] | 1000 to 100000 nM |
| FC(F)(F)c1ccc2[nH]nc(NC3=NC[C@@]4(CN5CCC4CC5)O3)c2c1 [Example 163] | < 100 nM |
| FC(F)(F)c1ccc2c(NC3=NC[C@@]4(CN5CCC4CC5)O3)n[nH]c2c1 [Example 164] | 100 to 1000 nM |
| c1ccc2c(NC3=NC[C@@]4(CN5CCC4CC5)O3)n[nH]c2c1 [Example 165] | < 100 nM |
| COc1ccc(-c2ccnc(NC3=NC[C@@]4(CN5CCC4CC5)O3)n2)cc1 [Example 166] | < 100 nM |
| Cc1sc2ncnc(NC3=NC[C@@]4(CN5CCC4CC5)O3)c2c1C [Example 167] | 1000 to 100000 nM |
| Brc1ccc2nc(NC3=NC[C@@]4(CN5CCC4CC5)O3)ncc2c1 [Example 168] | < 100 nM |
| Cc1nc(NC2=NC[C@@]3(CN4CCC3CC4)O2)nc(C)c1Br [Example 171] | < 100 nM |
| COc1cc(C)nc(NC2=NC[C@@]3(CN4CCC3CC4)O2)n1 [Example 172] | 100 to 1000 nM |
| COc1cccc(-c2csc(NC3=NC[C@@]4(CN5CCC4CC5)O3)n2)c1 [Example 173] | 100 to 1000 nM |

| Structure (SMILES) | EC50 |
| --- | --- |
| Cc1cc(Cl)cc2sc(NC3=NC[C@@]4(CN5CCC4CC5)O3)nc12 [Example 174] | 100 to 1000 nM |
| Cc1cc(C)nc(NC2=NC[C@@]3(CN4CCC3CC4)O2)n1 [Example 176] | 100 to 1000 nM |
| c1ccc2c(c1)CCc1cnc(NC3=NC[C@@]4(CN5CCC4CC5)O3)nc1-2 [Example 177] | < 100 nM |
| COc1nc(NC2=NC[C@@]3(CN4CCC3CC4)O2)ncc1Br [Example 178] | < 100 nM |
| COc1ccc2nc(NC3=NC[C@@]4(CN5CCC4CC5)O3)c(C)cc2c1 [Example 179] | 100 to 1000 nM |
| Cc1cc(-c2ccccc2)nc(NC2=NC[C@@]3(CN4CCC3CC4)O2)n1 [Example 180] | 100 to 1000 nM |
| Cc1nnc(NC2=NC[C@@]3(CN4CCC3CC4)O2)nc1C [Example 182] | 100 to 1000 nM |
| FC(F)(F)Oc1ccc2[nH]nc(NC3=NC[C@@]4(CN5CCC4CC5)O3)c2c1 [Example 183] | < 100 nM |
| Cc1cnc(NC2=NC[C@@]3(CN4CCC3CC4)O2)c(C)n1 [Example 186] | 100 to 1000 nM |
| Cc1nc(NC2=NC[C@@]3(CN4CCC3CC4)O2)sc1C [Example 187] | 100 to 1000 nM |
| c1ccc(-c2n[nH]c(NC3=NC[C@@]4(CN5CCC4CC5)O3)n2)cc1 [Example 188] | 1000 to 100000 nM |
| Cc1nc(NC2=NC[C@@]3(CN4CCC3CC4)O2)sc1-c1ccccc1 [Example 189] | 100 to 1000 nM |
| Cn1ccc(NC2=NC[C@@]3(CN4CCC3CC4)O2)n1 [Example 190] | 1000 to 100000 nM |
| Cc1cnc(NC2=NC[C@@]3(CN4CCC3CC4)O2)nc1-c1ccccc1 [Example 191] | < 100 nM |
| c1ccc(-c2ccnc(NC3=NC[C@@]4(CN5CCC4CC5)O3)n2)nc1 [Example 192] | 100 to 1000 nM |
| Brc1cnc(NC2=NC[C@@]3(CN4CCC3CC4)O2)nc1-c1ccccc1 [Example 193] | < 100 nM |
| c1cncc(-c2ccnc(NC3=NC[C@@]4(CN5CCC4CC5)O3)n2)c1 [Example 194] | < 100 nM |
| c1ccc(-c2nc(NC3=NC[C@@]4(CN5CCC4CC5)O3)ncc2-n2cncn2)cc1 [Example 195] | 1000 to 100000 nM |
| c1ccc2c(c1)OCc1cnc(NC3=NC[C@@]4(CN5CCC4CC5)O3)nc1-2 [Example 196] | < 100 nM |
| Fc1ccc(NC2=NC[C@@]3(CN4CCC3CC4)O2)nc1 [Example 197] | < 100 nM |
| Brc1ccc(NC2=NC[C@@]3(CN4CCC3CC4)O2)nc1 [Example 198] | < 100 nM |
| COc1cc(NC2=NC[C@@]3(CN4CCC3CC4)O2)ccn1 [Example 199] | 1000 to 100000 nM |
| Fc1ccc2nc(NC3=NC[C@@]4(CN5CCC4CC5)O3)sc2c1 [Example 200] | < 100 nM |
| c1nc(NC2=NC[C@@]3(CN4CCC3CC4)O2)nc2c1CCCC2 [Example 201] | < 100 nM |
| c1nc(NC2=NC[C@@]3(CN4CCC3CC4)O2)nc2c1CCC2 [Example 202] | < 100 nM |
| Cc1nc(NC2=NC[C@@]3(CN4CCC3CC4)O2)nc(Cl)c1C [Example 203] | < 100 nM |

| Structure (SMILES) | EC50 |
| --- | --- |
| O=C1CCCc2nc(NC3=NC[C@@]4(CN5CCC4CC5)O3)ncc21 [Example 204] | 100 to 1000 nM |
| N#Cc1ccnc(NC2=NC[C@@]3(CN4CCC3CC4)O2)c1 [Example 205] | 100 to 1000 nM |
| FC(F)(F)c1cccc2c(NC3=NC[C@@]4(CN5CCC4CC5)O3)n[nH]c12 [Example 206] | 1000 to 100000 nM |
| c1ccc(-c2ccc(NC3=NC[C@@]4(CN5CCC4CC5)O3)nc2)cc1 [Example 207] | 100 to 1000 nM |
| COc1ccc2c(c1)nc(NC1=NC[C@@]3(CN4CCC3CC4)O1)n2C [Example 208] | 1000 to 100000 nM |
| c1cc(C2CC2)nc(NC2=NC[C@@]3(CN4CCC3CC4)O2)n1 [Example 209] | < 100 nM |
| Brc1cnc(NC2=NC[C@@]3(CN4CCC3CC4)O2)nc1C1CC1 [Example 210] | < 100 nM |
| COc1ccc2c(NC3=NC[C@@]4(CN5CCC4CC5)O3)nn(C)c2c1 [Example 211] | 100 to 1000 nM |
| COc1ccc2c(c1)c(NC1=NC[C@@]3(CN4CCC3CC4)O1)nn2C [Example 212] | 1000 to 100000 nM |
| Clc1cnc(NC2=NC[C@@]3(CN4CCC3CC4)O2)nc1 [Example 213] | < 100 nM |
| Clc1ccc(NC2=NC[C@@]3(CN4CCC3CC4)O2)nc1 [Example 214] | < 100 nM |
| Clc1ccnc(NC2=NC[C@@]3(CN4CCC3CC4)O2)c1 [Example 215] | < 100 nM |
| CC(C)Oc1cnc(NC2=NC[C@@]3(CN4CCC3CC4)O2)cn1 [Example 216] | 1000 to 100000 nM |
| CN1CCCC1c1ccc(NC2=NC[C@@]3(CN4CCC3CC4)O2)nc1 (stereo partly drawn) [Example 217] | 1000 to 100000 nM |
| COCc1cc(NC2=NC[C@@]3(CN4CCC3CC4)O2)ncn1 [Example 218, (R)—N-(6-(methoxymethyl)pyrimidin-4-yl)-4H-1′-azaspiro[oxazole-5,3′-bicyclo[2.2.2]octan]-2-amine] | 100 to 1000 nM |
| c1nc(NC2=NC[C@@]3(CN4CCC3CC4)O2)ncc1OC1CCCC1 [Example 219, (R)—N-(5-(Cyclopentyloxy)pyrimidin-2-yl)-4H-1′-azaspiro[oxazole-5,3′-bicyclo[2.2.2]octan]-2-amine] | 1000 to 100000 nM |
| CC(C)c1cc2c(NC3=NC[C@@]4(CN5CCC4CC5)O3)ncnc2s1 [Example 223] | 100 to 1000 nM |
| CCc1cnc(NC2=NC[C@@]3(CN4CCC3CC4)O2)nc1 [Example 227] | 100 to 1000 nM |
| FC(F)(F)COc1cc(NC2=NC[C@@]3(CN4CCC3CC4)O2)ncn1 [Example 228, (R)—N-(6-(2,2,2-Trifluoroethoxy)pyrimidin-4-yl)-4H-1′-azaspiro[oxazole-5,3′-bicyclo[2.2.2]octan]-2-amine] | < 100 nM |
| CC(C)c1nc(NC2=NC[C@@]3(CN4CCC3CC4)O2)ncc1Br [Example 229, (R)—N-(5-Bromo-4-isopropylpyrimidin-2-yl)-4H-1′-azaspiro[oxazole-5,3′-bicyclo[2.2.2]octan]-2-amine] | < 100 nM |
| Brc1cnc(NC2=NC[C@@]3(CN4CCC3CC4)O2)nc1-c1cccnc1 [Example 230, (R)—N-(5-Bromo-4-(pyridin-3-yl)pyrimidin-2-yl)-4H-1′-azaspiro[oxazole-5,3′-bicyclo[2.2.2]octan]-2-amine] | < 100 nM |
| c1nc(NC2=NC[C@@]3(CN4CCC3CC4)O2)cc(OC2CCCC2)n1 [Example 231, (R)—N-(6-(Cyclopentyloxy)pyrimidin-4-yl)-4H-1′-azaspiro[oxazole-5,3′-bicyclo[2.2.2]octan]-2-amine] | 100 to 1000 nM |
| CC(C)Oc1cc(NC2=NC[C@@]3(CN4CCC3CC4)O2)ncn1 [Example 232, (R)—N-(6-Isopropoxypyrimidin-4-yl)-4H-1′-azaspiro[oxazole-5,3′-bicyclo[2.2.2]octan]-2-amine] | 100 to 1000 nM |
| c1cc(NC2=NC[C@@]3(CN4CCC3CC4)O2)ccn1 [Example 235, (R)—N-(Pyridin-4-yl)-4H-1′-azaspiro[oxazole-5,3′-bicyclo[2.2.2]octan]-2-amine] | 1000 to 100000 nM |
